Our source for the TR-FRET signal values is patent US20240246941A1, “SUBSTITUTED 4-(3-AMINOPROP-1-YL)AMINOQUINOLINE ANALOGS AS MODULATORS OF MELANOMA-ASSOCIATED ANTIGEN 11 UBIQUITIN LIGASE” (ST. JUDE CHILDREN'S RESEARCH HOSPITAL, INC., priority 2020, published 2024).

SMILES strings stand for the structures.

The target of this assay is MAGE-A11:PCF11 (Homo sapiens (Human), UniProt P43364). Nature of the assay: TR-FRET single point screening at 15 μM. It counts as binding. Set-up: unit not given here. As to conditions: single point TR-FRET screening at 15 μM against MAGE-A11:PCF11. The source says: TR-FRET Assays and High-throughput Screen. Terbium-anti-GST antibody, 1 M Tris pH 7.5 1 M MgCl2 and 1 M DTT were purchased from Invitrogen (Carlsbad, CA), BSA was purchased from Sigma (St. Louis, MO). Dimethyl sulfoxide (DMSO) was purchased from Fisher Scientific (Pittsburgh, PA). Black 384-well low volume plates and 384-well polypropylene compound plates were purchased from Corning Incorporated (Tewksbury, MA). The St. Jude FDA drug and Bioactive library (11,293 chemicals), Drug-like library (10,073 chemicals) and Lead-like library (10,041 chemicals) were custom assembled and purchased from commercial sources including Sigma, Microsource (Gaylordsville, CT), selleckchem (Houston, TX), ChemDiv (San Diego, CA), ChemBridge (San Diego, CA), Enamine (Monmouth Jct., NJ), and Life Chemicals (Niagara-on-the-Lake, ON, Canada). They were arrayed (10 mM in DMSO) in 384-well polypropylene compound plates with columns 1, 2, 13 and 14 empty which were reserved for controls.
MAGE-A11:PCF11, sequence (P43364 218-429): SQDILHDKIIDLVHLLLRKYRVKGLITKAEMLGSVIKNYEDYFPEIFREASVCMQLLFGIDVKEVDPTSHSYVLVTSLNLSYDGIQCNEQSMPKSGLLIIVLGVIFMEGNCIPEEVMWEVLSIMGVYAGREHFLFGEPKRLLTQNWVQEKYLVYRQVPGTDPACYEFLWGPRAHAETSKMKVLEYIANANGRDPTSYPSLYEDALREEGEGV
The TR-FRET assay buffer with a formula of 50 mM Tris pH 7.5, 20 mM MgCl2, 0.1 mg/ml BSA and 1 mM DTT was freshly prepared before each experiment. All TR-FRET assays were performed in black 384-well plates with 20 μl/well assay volume in the TR-FRET assay buffer at room temperature (approximately 25° C.). All peptides or compounds were solubilized in DMSO. To test the competitive activity of peptides or compounds against the interaction between GST-MAGEA11 MHD and FAM-PCF11_4 peptide, 10 μl/well peptide or compound at specified concentration was dispensed into a black 384-well low volume plate, followed by 5 μl/well FAM-PCF11_4 (800 nM), 5 μl/well Tb-anti-GST (20 nM) and GST-MAGEA11 MHD (20 nM). The assay components in each well was then mixed by shaking the plate on an IKA MTS 2/4 digital microtiter plate shaker (IKA Works; Wilmington, NC, USA) at 900 RPM for 1 minute. The plate was further centrifuged in an Eppendorf 5810 centrifuge with an A-4-62 swing-bucket rotor (Eppendorf AG, Hamburg, Germany) at 201 g (1000 rpm) for 30 seconds. The plate was then incubated for 90 min with a lid to avoid light exposure to the assay components. After incubation, the fluorescent emission signals at 520 nm and 490 nm channels of individual wells were measured with a PHERAstar FS plate reader (BMG Labtech; Durham, NC, USA) by using a 340 nm excitation filter, 100 μs delay time, and 200 μs integration time. The TR-FRET fluorescence emission ratio (TR-FRET signal) for each well was presented as 10 000×520 nm/490 nm, which was used directly for curve fitting, or further converted to % Inhibition based on the respective positive and negative controls. The graphic software GraphPad Prism 4.81 (GraphPad Software; La Jolla, CA, USA) was used to generate curves and derive IC50 values of tested peptides or compounds, if applicable.
TR-FRET screen for identifying MAGEA11 small molecule inhibitors was performed as follows. The primary one-concentration screening and subsequent 10 or 20-concentration dose response tests were accomplished with an automated High Throughput Screening system (HighRes Biosolutions, Beverly, MA)^30. In the primary screening, 15 μl/well FAM-PCF11_4 (267 nM) was first dispensed with a Multidrop Combi Reagent Dispenser (Thermo Fisher Scientific, Waltham, MA) to black 384-well low volume assay plates. The plates were spun down with a Velocity11 VSpin microplate centrifuge (Agilent Technologies, Santa Clara, CA). 30 nl/well of 10 mM compound/DMSO solutions, or DMSO alone, were transferred from compound plates (the St. Jude FDA drug and bioactive library, Drug-like library and Lead-like library) or a control plate to the assay plates with a Pin Tool (V&P Scientific, San Diego, CA). The compounds were arrayed in columns 3 to 12 and columns 15 to 24 of compound plates. The controls were arrayed in columns 1, 2, 13 and 14 of a compound plate. […]
Compound `COc1ccc2ncc(S(=O)(=O)c3ccccc3)c(N3CCN(c4ccc(F)cc4)CC3)c2c1` [SJ000083978] had a TR-FRET signal of −133.1. The same measure for `CCOc1ccc2ncc(S(=O)(=O)c3ccccc3)c(N3CCN(c4ccc(F)cc4)CC3)c2c1` [SJ000083979]: −181.3. The same measure for `O=S(=O)(c1ccccc1)c1cnc2ccc(F)cc2c1N1CCN(c2ccc(F)cc2)CC1` [SJ000083980]: −11.08. Under `COc1ccc(N2CCN(c3c(S(=O)(=O)c4ccccc4)cnc4ccc(C)cc34)CC2)cc1` [SJ000083981] stands −37.97; under `COc1ccc(N2CCN(c3c(S(=O)(=O)c4ccccc4)cnc4ccc(F)cc34)CC2)cc1` [SJ000083982], −32.85; under `COc1ccc(N2CCN(c3c(S(=O)(=O)c4ccccc4)cnc4ccc(Cl)cc34)CC2)cc1` [SJ000083983], −17.94.

Regarding `CN(C)c1cc(NC(=O)CN2CCOCC2)c2ccccc2n1` [SJ000111677], the TR-FRET signal is 4.988. Under `CN(C)c1cc(NC(=O)CNC(C)(C)CC(C)(C)C)c2ccccc2n1` [SJ000111678] stands 10.62. The same measure for `Cc1cc(NC(=O)CN2CCN(C(=O)c3ccco3)CC2)c2ccccc2n1` [SJ000111679]: −1.072; for `Cc1cc(NC(=O)CN2CCN(C)CC2)c2ccccc2n1` [SJ000111680]: 4.647; for `CCc1nc2ccccc2c(NC(=O)CN2CCN(c3ccccc3)CC2)c1C` [SJ000111681]: 6.894. Under `CCc1nc2ccccc2c(NC(=O)CN2CCCCC2)c1C` [SJ000111682] stands 1.593; under `O=C(CN1CCN(C(=O)c2ccccc2)CC1)Nc1c2c(nc3ccccc13)N(c1cccc(Cl)c1)CC2` [SJ000111683], −264.3; under `O=C(CN1CCN(C(c2ccccc2)c2ccccc2)CC1)Nc1c2c(nc3ccccc13)CCC2` [SJ000111684], 11.85.

For `COc1ccc(-c2csc(N3CCN(c4cc(C)nc5ccccc45)CC3)n2)cc1OC` [SJ000114009], the TR-FRET signal was −53.43. Under `Cc1ccc(S(=O)(=O)c2cnc3ccccc3c2N2CCN(c3ccccc3)CC2)cc1` [SJ000117047] stands −6.567. The same measure for `COc1ccc2ncc(S(=O)(=O)c3ccc(C)cc3)c(N3CCN(c4ccccc4)CC3)c2c1` [SJ000117048]: −85.57; for `CCOc1ccc2ncc(S(=O)(=O)c3ccc(C)cc3)c(N3CCN(c4ccccc4)CC3)c2c1` [SJ000117049]: −45.32; for `Cc1ccc(S(=O)(=O)c2cnc3ccc(Cl)cc3c2N2CCN(c3ccccc3)CC2)cc1` [SJ000117050]: −3.321. The same measure for `COc1ccc2ncc(S(=O)(=O)c3ccc(C)c(C)c3)c(N3CCN(c4ccccc4)CC3)c2c1` [SJ000117051]: −52.48; for `Cc1ccc(S(=O)(=O)c2cnc3ccc(F)cc3c2N2CCN(c3ccccc3)CC2)cc1C` [SJ000117052]: −16.9; for `CCc1ccc(S(=O)(=O)c2cnc3ccccc3c2N2CCN(c3ccccc3)CC2)cc1` [SJ000117053]: −21.21. Compound `CCOc1ccc2ncc(S(=O)(=O)c3ccc(Cl)cc3)c(N3CCN(c4ccccc4)CC3)c2c1` [SJ000117054] registered a TR-FRET signal of −446.9. Under `O=S(=O)(c1ccc(Cl)cc1)c1cnc2ccc(F)cc2c1N1CCN(c2ccccc2)CC1` [SJ000117055] stands 2.112.

As for `CCc1ccc2ncc(S(=O)(=O)c3ccc(OC)cc3)c(N3CCN(c4ccccc4)CC3)c2c1` [SJ000117056], the TR-FRET signal is −2.791.

`Cc1ccc(S(=O)(=O)c2cnc3ccccc3c2N2CCN(c3ccc(F)cc3)CC2)cc1` [SJ000117057] returned a TR-FRET signal of −20.61.

The compound `Cc1ccc(S(=O)(=O)c2cnc3ccc(C)cc3c2N2CCN(c3ccc(F)cc3)CC2)cc1` [SJ000117058] registered a TR-FRET signal of −4.068. `COc1ccc2ncc(S(=O)(=O)c3ccc(C)cc3)c(N3CCN(c4ccc(F)cc4)CC3)c2c1` [SJ000117059] registered a TR-FRET signal of −118.5. Under `CCOc1ccc2ncc(S(=O)(=O)c3ccc(C)cc3)c(N3CCN(c4ccc(F)cc4)CC3)c2c1` [SJ000117060] stands −11.07. Under `Cc1ccc(S(=O)(=O)c2cnc3ccc(F)cc3c2N2CCN(c3ccc(F)cc3)CC2)cc1` [SJ000117061] stands −70.5. In turn, `Cc1ccc(S(=O)(=O)c2cnc3ccccc3c2N2CCN(c3ccc(F)cc3)CC2)cc1C` [SJ000117062] came in with a TR-FRET signal of −54.86. The same measure for `O=S(=O)(c1ccc(F)cc1)c1cnc2ccc(Cl)cc2c1N1CCN(c2ccc(F)cc2)CC1` [SJ000117063]: −4.205; for `CCc1ccc2ncc(S(=O)(=O)c3ccc(OC)cc3)c(N3CCN(c4ccc(F)cc4)CC3)c2c1` [SJ000117064]: −9.084; for `COc1ccccc1N1CCN(c2c(S(=O)(=O)c3ccc(C)cc3)cnc3ccccc23)CC1` [SJ000117065]: −8.687.

`COc1ccccc1N1CCN(c2c(S(=O)(=O)c3ccc(C)cc3)cnc3ccc(C)cc23)CC1` [SJ000117066] showed a TR-FRET signal of −92.89. The same measure for `COc1ccccc1N1CCN(c2c(S(=O)(=O)c3ccc(C)cc3)cnc3ccc(Cl)cc23)CC1` [SJ000117067]: −12.86; for `COc1ccccc1N1CCN(c2c(S(=O)(=O)c3ccc(C)c(C)c3)cnc3ccccc23)CC1` [SJ000117068]: −5.706. The same measure for `CCc1ccc(S(=O)(=O)c2cnc3ccccc3c2N2CCN(c3ccccc3OC)CC2)cc1` [SJ000117069]: −47.44. As to `COc1ccccc1N1CCN(c2c(S(=O)(=O)c3ccc(Cl)cc3)cnc3ccc(C)cc23)CC1` [SJ000117070], the TR-FRET signal is −15.37.

In turn, `COc1ccc(N2CCN(c3c(S(=O)(=O)c4ccccc4)cnc4ccc(OC)cc34)CC2)cc1` [SJ000117071] registered a TR-FRET signal of −32.67. The same measure for `COc1ccc(N2CCN(c3c(S(=O)(=O)c4ccc(C)cc4)cnc4ccc(Cl)cc34)CC2)cc1` [SJ000117072]: −5.838. As to `COc1ccc(N2CCN(c3c(S(=O)(=O)c4ccc(C)c(C)c4)cnc4ccc(F)cc34)CC2)cc1` [SJ000117073], the TR-FRET signal is given as −13.26. Under `CCc1ccc(S(=O)(=O)c2cnc3ccccc3c2N2CCN(c3ccc(OC)cc3)CC2)cc1` [SJ000117074] stands −11.2. Under `COc1ccc(N2CCN(c3c(S(=O)(=O)c4ccc(Cl)cc4)cnc4ccc(C)cc34)CC2)cc1` [SJ000117075] stands −3.122; under `COc1ccc2ncc(S(=O)(=O)c3ccc(C)cc3)c(N3CCN(c4ccccc4F)CC3)c2c1` [SJ000117076], 6.02. Under `CCOc1ccc2ncc(S(=O)(=O)c3ccc(C)cc3)c(N3CCN(c4ccccc4F)CC3)c2c1` [SJ000117077] stands 5.159.

As for `COc1ccc2ncc(S(=O)(=O)c3ccc(C)c(C)c3)c(N3CCN(c4ccccc4F)CC3)c2c1` [SJ000117078], the TR-FRET signal is −8.289. The same measure for `CCc1ccc(S(=O)(=O)c2cnc3ccccc3c2N2CCN(c3ccccc3F)CC2)cc1` [SJ000117079]: −56.58; for `Cc1ccc(S(=O)(=O)c2cnc3ccccc3c2N2CCN(c3ccc(C)cc3C)CC2)cc1` [SJ000117080]: 3.172.
